Experimental data taken from ChEMBL document CHEMBL1154954, “Synthesis and in vitro evaluation of (18)F-labelled S-fluoroalkyl diarylguanidines: Novel high-affinity NMDA receptor antagonists for imaging with PET” (Bioorg Med Chem Lett, 2010).
Calls of active or inactive are those of the source. The calls are words filed in the database; no cut-off is given here.

Key:
[1] = Inhibition of voltage gated sodium channel site 2 at 1 uM; conditions: tested as the 18F-labelled form
[2] = target: Sigma non-opioid intracellular receptor 1 (Homo sapiens) (UniProt Q99720); experiment: Inhibition of sigma 1 receptor at 1 uM; conditions: tested as the 18F-labelled form
[3] = Inhibition of sigma 2 receptor at 1 uM; conditions: tested as the 18F-labelled form
[4] = target: Sodium-dependent noradrenaline transporter (Homo sapiens) (UniProt P23975); experiment: Inhibition of norepinephrine transporter at 1 uM; conditions: tested as the 18F-labelled form
[5] = Inhibition of GABA A receptor at 1 uM; conditions: tested as the 18F-labelled form
[6] = target: 5-hydroxytryptamine receptor 5A (Homo sapiens) (UniProt P47898); experiment: Inhibition of 5HT5A receptor at 1 uM; conditions: tested as the 18F-labelled form
[7] = Inhibition of opioid receptor at 1 uM; conditions: tested as the 18F-labelled form
[8] = Inhibition of voltage gated sodium channel site 2 at 10 nM; conditions: tested as the 18F-labelled form
[9] = target: Sigma non-opioid intracellular receptor 1 (Homo sapiens) (UniProt Q99720); experiment: Inhibition of sigma 1 receptor at 10 nM; conditions: tested as the 18F-labelled form
[10] = Inhibition of sigma 2 receptor at 10 nM; conditions: tested as the 18F-labelled form
[11] = target: Sodium-dependent noradrenaline transporter (Homo sapiens) (UniProt P23975); experiment: Inhibition of norepinephrine transporter at 10 nM; conditions: tested as the 18F-labelled form
[12] = Inhibition of GABA A receptor at 10 nM; conditions: tested as the 18F-labelled form
[13] = target: 5-hydroxytryptamine receptor 5A (Homo sapiens) (UniProt P47898); experiment: Inhibition of 5HT5A receptor at 10 nM; conditions: tested as the 18F-labelled form
[14] = Inhibition of opioid receptor at 10 nM; conditions: tested as the 18F-labelled form
[15] = Binding affinity to NMDA receptor PCP binding site
Glutamate NMDA receptor = experiment: Displacement of [3H]TCP from NMDA receptor PCP binding site in rat cerebral cortex homogenate; assay type: tissue-based
[16] = Distribution coefficient, log D at pH 7.5; assay type: physicochemical; conditions: octanol/water
[17] = Lipophilicity, log D of the compound; assay type: physicochemical; conditions: octanol/water
[18] = target: Voltage-gated inwardly rectifying potassium channel KCNH2 (Homo sapiens, UniProt Q12809); experiment: Inhibition of human ERG at 10 nM; conditions: 0.01 µM
[19] = Octanol-phosphate buffer partition coefficient, log D at pH 7.4; assay type: physicochemical
hERG (KCNH2) = hERG (KCNH2) (Homo sapiens, UniProt Q12809); experiment: Inhibition of human ERG at 1 uM
Sequence of hERG (KCNH2) (Q12809 whole entry): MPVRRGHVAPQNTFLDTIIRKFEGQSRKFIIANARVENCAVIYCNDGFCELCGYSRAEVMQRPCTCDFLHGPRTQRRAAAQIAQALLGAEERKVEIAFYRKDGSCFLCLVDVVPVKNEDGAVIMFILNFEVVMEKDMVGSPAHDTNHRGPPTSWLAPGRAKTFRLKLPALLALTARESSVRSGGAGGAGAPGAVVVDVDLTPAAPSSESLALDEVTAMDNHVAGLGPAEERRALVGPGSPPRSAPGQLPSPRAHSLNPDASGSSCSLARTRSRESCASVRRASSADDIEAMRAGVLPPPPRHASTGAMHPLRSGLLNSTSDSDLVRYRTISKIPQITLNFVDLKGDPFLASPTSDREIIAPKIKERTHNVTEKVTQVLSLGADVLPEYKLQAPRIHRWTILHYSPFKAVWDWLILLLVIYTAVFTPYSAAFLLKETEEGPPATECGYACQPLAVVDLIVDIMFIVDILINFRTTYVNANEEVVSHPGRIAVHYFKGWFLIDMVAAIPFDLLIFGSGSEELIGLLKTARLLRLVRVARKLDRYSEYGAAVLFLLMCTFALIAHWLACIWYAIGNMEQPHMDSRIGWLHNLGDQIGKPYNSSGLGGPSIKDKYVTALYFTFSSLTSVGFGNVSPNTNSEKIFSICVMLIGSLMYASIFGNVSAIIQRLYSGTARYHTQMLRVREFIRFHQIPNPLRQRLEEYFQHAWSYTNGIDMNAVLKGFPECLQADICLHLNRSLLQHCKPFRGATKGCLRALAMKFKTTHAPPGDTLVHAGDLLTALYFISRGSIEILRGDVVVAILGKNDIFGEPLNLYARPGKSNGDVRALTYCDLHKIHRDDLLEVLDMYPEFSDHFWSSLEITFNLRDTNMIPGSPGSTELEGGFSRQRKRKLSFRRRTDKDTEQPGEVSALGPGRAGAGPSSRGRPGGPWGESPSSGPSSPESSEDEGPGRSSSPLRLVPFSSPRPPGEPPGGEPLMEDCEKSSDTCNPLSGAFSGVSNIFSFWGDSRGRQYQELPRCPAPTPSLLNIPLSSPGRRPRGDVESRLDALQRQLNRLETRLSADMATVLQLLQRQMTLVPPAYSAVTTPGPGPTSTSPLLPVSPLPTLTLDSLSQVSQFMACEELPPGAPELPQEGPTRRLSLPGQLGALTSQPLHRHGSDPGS

Sequence of Sigma non-opioid intracellular receptor 1 (Homo sapiens) (Q99720 whole entry): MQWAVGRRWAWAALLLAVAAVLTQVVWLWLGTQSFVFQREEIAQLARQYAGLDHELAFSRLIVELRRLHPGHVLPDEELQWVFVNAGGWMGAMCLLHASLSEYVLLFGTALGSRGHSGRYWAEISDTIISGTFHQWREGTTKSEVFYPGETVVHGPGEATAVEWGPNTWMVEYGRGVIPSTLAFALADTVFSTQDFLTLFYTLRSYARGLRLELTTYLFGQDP
Sequence of 5-hydroxytryptamine receptor 5A (Homo sapiens) (P47898 whole entry): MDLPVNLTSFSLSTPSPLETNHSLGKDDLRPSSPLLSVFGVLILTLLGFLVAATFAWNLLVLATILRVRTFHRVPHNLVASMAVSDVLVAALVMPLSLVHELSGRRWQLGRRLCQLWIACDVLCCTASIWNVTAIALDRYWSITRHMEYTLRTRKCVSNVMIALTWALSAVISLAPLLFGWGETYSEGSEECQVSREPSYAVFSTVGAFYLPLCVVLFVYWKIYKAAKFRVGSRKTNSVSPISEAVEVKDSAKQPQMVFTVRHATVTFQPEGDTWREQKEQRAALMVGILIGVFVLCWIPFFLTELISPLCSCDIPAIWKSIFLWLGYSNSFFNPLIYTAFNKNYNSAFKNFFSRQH
Sequence of Sodium-dependent noradrenaline transporter (Homo sapiens) (P23975 whole entry): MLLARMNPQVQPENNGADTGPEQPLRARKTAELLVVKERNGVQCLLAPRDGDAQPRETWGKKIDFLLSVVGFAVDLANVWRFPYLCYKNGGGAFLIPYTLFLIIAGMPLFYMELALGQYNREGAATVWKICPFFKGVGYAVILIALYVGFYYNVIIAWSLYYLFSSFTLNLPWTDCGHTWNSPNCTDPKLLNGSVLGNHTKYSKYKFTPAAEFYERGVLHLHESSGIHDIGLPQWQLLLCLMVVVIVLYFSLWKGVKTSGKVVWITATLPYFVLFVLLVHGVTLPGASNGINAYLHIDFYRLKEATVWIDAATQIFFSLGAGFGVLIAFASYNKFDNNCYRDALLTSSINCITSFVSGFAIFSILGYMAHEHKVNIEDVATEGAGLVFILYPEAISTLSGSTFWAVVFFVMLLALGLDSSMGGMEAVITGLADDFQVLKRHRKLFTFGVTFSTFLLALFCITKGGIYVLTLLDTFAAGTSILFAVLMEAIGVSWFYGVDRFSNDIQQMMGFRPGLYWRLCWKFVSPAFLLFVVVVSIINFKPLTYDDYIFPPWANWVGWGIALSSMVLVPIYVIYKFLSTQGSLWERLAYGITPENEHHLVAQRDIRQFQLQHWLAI
Sequence of Voltage-gated inwardly rectifying potassium channel KCNH2 (Q12809 whole entry): as the sequence (Q12809 whole entry) above

CSc1cccc(N(C)C(=N)Nc2cc(SCCF)ccc2Cl)c1
inhibition [1]: 47% | Activity [2]: Active | Activity [3]: Active | Activity [4]: Active | Activity [5]: Active | Activity [6]: Active | Activity [7]: Active | Activity [8]: inactive | Activity [9]: inactive | Activity [10]: inactive | Activity [11]: inactive | Activity [12]: inactive | Activity [13]: inactive | Activity [14]: inactive

C[C@]12C[C@@H]3C[C@](N)(C1)C[C@@](C[18F])(C3)C2
IC50 [15]: 6000 nM

CSc1ccc(Cl)c(NC(=N)N(C)c2cccc(S[11CH3])c2)c1
Kd (Glutamate NMDA receptor): 1.78 nM | Kd [15]: 1.9 nM | logD [16]: 2.68

CSc1cccc(N(C)C(=N)Nc2cc(SC[18F])ccc2Cl)c1
Kd (Glutamate NMDA receptor): 1.38 nM

[11CH3]NC1(c2ccccc2)CCCCC1=O (centres undefined) [[11C]KETAMINE]
Kd [15]: 1200 nM

[18F]CCc1ccc(C2(N3CCCCC3)CCCCC2)s1
Kd [15]: 38 nM

CSc1ccc(Cl)c(NC(=N)N(C)c2cccc(O[11CH3])c2)c1
Kd [15]: 5.2 nM

[18F]CC12NC(Cc3ccccc31)c1ccccc12 (centres undefined)
Kd [15]: 79 nM

CN(C(=N)Nc1cccc2ccccc12)c1cccc([123I])c1
Kd [15]: 4.2 nM | logD [17]: 2.19

CSc1cccc(N(C)C(=N)Nc2cc(SCC[18F])ccc2Cl)c1
Activity [18]: Not Active | Kd (Glutamate NMDA receptor): 2.35 nM | logD [19]: 2.49 | inhibition at 1 µM (hERG (KCNH2)): 56%
